Measurements: ChEMBL document CHEMBL6134808, “Sertraline and Astemizole Enhance the Deubiquitinase Activity of USP7 by Binding to Its Switching Loop Region” (J Med Chem, 2025)
Active and inactive are the calls of the source. The rule behind the calls is not given here.

Key:
Homo sapiens = organism: Homo sapiens; test: Binding affinity to MTSL-labeled USP7CD-CTP N1102C mutant (unknown origin) expressed in Escherichia coli BL21(DE3) assessed as complex formation of compound and CTP with switching loop region of USP7 at 200 uM by CPMG spectral analysis; settings: filed as activator
[1] = target: T1, Ubiquitin carboxyl-terminal hydrolase 7 (Homo sapiens, UniProt Q93009); settings: filed as activator, time 15.0 min
Target sequence in this assay (Q93009 whole entry, looked up): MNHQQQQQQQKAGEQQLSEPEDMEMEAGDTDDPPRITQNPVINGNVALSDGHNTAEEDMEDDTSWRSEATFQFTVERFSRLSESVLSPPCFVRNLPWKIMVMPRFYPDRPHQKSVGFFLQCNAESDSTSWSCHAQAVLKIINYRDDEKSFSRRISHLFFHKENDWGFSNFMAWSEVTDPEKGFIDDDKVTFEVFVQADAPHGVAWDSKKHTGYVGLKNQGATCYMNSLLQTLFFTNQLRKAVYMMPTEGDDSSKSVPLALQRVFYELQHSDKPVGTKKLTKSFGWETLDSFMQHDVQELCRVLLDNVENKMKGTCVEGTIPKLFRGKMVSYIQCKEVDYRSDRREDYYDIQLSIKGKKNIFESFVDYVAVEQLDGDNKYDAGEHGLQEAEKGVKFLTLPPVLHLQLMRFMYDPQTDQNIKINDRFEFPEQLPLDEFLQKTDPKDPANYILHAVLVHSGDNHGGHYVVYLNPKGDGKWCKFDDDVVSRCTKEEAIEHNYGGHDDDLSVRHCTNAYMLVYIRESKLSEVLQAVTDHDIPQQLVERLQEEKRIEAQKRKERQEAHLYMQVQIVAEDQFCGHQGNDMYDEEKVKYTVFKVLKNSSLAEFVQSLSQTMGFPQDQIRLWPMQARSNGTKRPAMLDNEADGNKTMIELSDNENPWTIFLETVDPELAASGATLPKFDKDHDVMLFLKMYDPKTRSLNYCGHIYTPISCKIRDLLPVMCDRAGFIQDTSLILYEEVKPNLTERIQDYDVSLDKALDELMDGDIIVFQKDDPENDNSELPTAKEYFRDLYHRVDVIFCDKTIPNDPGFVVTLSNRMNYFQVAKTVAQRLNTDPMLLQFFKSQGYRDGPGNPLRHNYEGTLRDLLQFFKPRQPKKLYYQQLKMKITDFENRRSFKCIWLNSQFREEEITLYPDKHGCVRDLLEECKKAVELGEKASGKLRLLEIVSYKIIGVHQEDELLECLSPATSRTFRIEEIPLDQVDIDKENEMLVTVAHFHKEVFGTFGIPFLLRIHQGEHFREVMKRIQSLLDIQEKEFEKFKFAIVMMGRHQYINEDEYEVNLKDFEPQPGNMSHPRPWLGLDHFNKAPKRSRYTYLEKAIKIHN

[2] = test system: Ubiquitin carboxyl-terminal hydrolase 7 (Homo sapiens), Q93009 [D1080N]; settings: filed as activator, time 15.0 min
Chain of Ubiquitin carboxyl-terminal hydrolase 7 (Homo sapiens), Q93009 [D1080N] (Q93009 whole entry D1080N): as the sequence (Q93009 whole entry, looked up) above, with D1080N counted along it

[3] = target: T1, Ubiquitin carboxyl-terminal hydrolase 7; settings: filed as activator
Target sequence in this assay (Q93009 whole entry, looked up): as the sequence (Q93009 whole entry, looked up) above

[4] = test system: Ubiquitin carboxyl-terminal hydrolase 7 (Homo sapiens), Q93009 [L757P]; settings: filed as activator, time 15.0 min
Chain of Ubiquitin carboxyl-terminal hydrolase 7 (Homo sapiens), Q93009 [L757P] (Q93009 whole entry L757P): as the sequence (Q93009 whole entry, looked up) above, with L757P counted along it

[5] = test system: Ubiquitin carboxyl-terminal hydrolase 7 (Homo sapiens), Q93009 [I766T]; settings: filed as activator, time 15.0 min
Chain of Ubiquitin carboxyl-terminal hydrolase 7 (Homo sapiens), Q93009 [I766T] (Q93009 whole entry I766T, the tested form may be a part): as the sequence (Q93009 whole entry, looked up) above, with I766T counted along it

[6] = target: T1, Ubiquitin carboxyl-terminal hydrolase 7; test: Activation of USP7 catalytic domain (208 to 560 residues) (unknown origin) expressed in Escherichia coli BL21(DE3) assessed as Ub-AMC hydrolysis preincubated for 15 mins followed by Ub-AMC addition and measured every 1 min by fluorescence based analysis
Target sequence in this assay (Q93009 whole entry): as the sequence (Q93009 whole entry, looked up) above

[7] = target: T1, Ubiquitin carboxyl-terminal hydrolase 7; test: Activation of USP7 catalytic domain (208 to 560 residues) (unknown origin) expressed in Escherichia coli BL21(DE3) assessed as decrease in thermal stability of protein at 250 uM by SYPRO orange dye based fluorescence analysis; settings: filed as activator
Target sequence in this assay (Q93009 whole entry, looked up): as above

[8] = target: T1, Ubiquitin carboxyl-terminal hydrolase 7; test: Activation of USP7 catalytic domain (208 to 560 residues) (unknown origin) expressed in Escherichia coli BL21(DE3) assessed as upregulation of Kcat of enzyme using Ub-AMC as substrate at 200 uM preincubated for 15 mins followed by Ub-AMC addition and measured for 1 hr by fluorescence based analysis; settings: filed as activator, time 75.0 min
Target sequence in this assay (Q93009 whole entry, looked up): as above

Row | Structure (SMILES) | Activity (Homo sapiens) | EC1.5 [1] [µM] | EC1.5 [2] [µM] | EC1.5 [3] [µM] | EC1.5 [4] [µM] | EC1.5 [5] [µM] | EC50 [6] [µM] | Activity [7] | Activity [8]
1 | CN[C@H]1CC[C@@H](c2ccc(Cl)c(Cl)c2)c2ccccc21 | Active |  |  |  |  |  |  |  | 
2 | COc1ccc(CCN2CCC(Nc3nc4ccccc4n3Cc3ccc(F)cc3)CC2)cc1 [ASTEMIZOLE] | Active | 2.19 | 6.54 | 5.61 | 8.98 | 1.27 | 32.2 | Active | Active
